Data reported in ChEMBL document CHEMBL1201862, “PubChem BioAssay data set” (2004).
Activity calls are given as the source filed them.

Columns and labels:
Assay type in all cases: functional
[1] = target: T1, Corticotropin-releasing factor receptor 2/Corticotropin-releasing factor-binding protein (Homo sapiens, UniProt P24387+Q13324); assay: Dose Response confirmation of uHTS hits for small molecule antagonists of the CRF-binding protein and CRF-R2 receptor complex.; conditions: read-out: IC50_Mean
T1 sequence (Q13324 whole entry): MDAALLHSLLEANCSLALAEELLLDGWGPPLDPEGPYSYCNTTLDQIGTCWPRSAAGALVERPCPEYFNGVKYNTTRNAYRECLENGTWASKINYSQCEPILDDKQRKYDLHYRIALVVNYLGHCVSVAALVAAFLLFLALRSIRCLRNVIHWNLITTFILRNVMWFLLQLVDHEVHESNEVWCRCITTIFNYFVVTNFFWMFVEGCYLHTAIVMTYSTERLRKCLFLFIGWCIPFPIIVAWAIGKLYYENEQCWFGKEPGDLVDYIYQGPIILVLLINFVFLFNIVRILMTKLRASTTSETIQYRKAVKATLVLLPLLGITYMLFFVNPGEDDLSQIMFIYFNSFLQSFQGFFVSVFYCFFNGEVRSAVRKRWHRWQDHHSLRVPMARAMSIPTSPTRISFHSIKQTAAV
T1 sequence (P24387 whole entry): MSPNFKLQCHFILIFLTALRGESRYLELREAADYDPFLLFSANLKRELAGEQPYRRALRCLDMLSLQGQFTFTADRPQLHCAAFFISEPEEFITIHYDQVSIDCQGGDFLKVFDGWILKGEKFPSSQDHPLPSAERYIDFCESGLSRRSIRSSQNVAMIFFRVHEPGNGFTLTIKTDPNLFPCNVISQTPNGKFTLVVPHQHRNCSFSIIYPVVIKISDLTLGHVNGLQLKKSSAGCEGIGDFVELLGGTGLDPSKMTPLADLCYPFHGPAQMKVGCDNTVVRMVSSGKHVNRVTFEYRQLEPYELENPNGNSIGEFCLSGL

[2] = target: T1, Corticotropin-releasing factor receptor 2/Corticotropin-releasing factor-binding protein; assay: activators of CRF receptor 2 with binding protein – uHTS hits, confirmation (AID 602473); conditions: read-out: EC50_Mean
[3] = system: H4; assay: Luminescence Cell-Based Dose Response HTS to Identify Activators of 5'UTR Stem-Loop Driven Prion Protein mRNA Translation in H4 Neuroglioblastoma Cells. [Related pubchem assays: 1829 (Project Summary), 1814 (Primary HTS)]; conditions: Homo sapiens
[4] = Luminescence Cell-Based Dose Response HTS to Identify Activators of Luciferase Translation or Activity in H4 […] Cells. [Related pubchem assays: 1829 (Project Summary), 1814 (Primary HTS)]
[5] = target: T2, Heat shock factor protein 1 (Mus musculus, UniProt P38532); assay: decrease of HSF1-responsive luciferase luminescence – cell-based, NIH3T3, dose retest, confirmation (AID 2382);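 further: NIH3T3 fibroblasts with HSF1-driven luciferase reporter stressed by proteasome inhibitor MG132; luminescence from HSF1-driven luciferase expression after 8 hours of MG132 stress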
T2 sequence (P38532 whole entry): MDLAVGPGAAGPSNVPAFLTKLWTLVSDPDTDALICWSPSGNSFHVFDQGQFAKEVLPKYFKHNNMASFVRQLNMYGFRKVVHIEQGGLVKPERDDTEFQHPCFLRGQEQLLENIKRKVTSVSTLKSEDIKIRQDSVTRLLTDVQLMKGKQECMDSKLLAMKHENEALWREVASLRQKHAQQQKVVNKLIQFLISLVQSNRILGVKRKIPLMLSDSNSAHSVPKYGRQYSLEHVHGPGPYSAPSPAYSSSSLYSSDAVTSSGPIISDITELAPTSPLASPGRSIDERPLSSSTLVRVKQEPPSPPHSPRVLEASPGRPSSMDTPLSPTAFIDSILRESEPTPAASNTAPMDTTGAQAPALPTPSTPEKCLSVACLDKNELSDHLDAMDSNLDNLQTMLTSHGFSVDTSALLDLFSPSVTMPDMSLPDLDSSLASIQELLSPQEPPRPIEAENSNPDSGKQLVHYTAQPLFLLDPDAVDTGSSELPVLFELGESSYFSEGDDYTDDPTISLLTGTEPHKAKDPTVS

[6] = system: Vero; assay: viability of Vero cells under compound – cytotoxicity control for flavivirus capping enzyme inhibitors (AID 588742); conditions: Chlorocebus sabaeus
[7] = target: Genome polyprotein (dengue virus type 2, UniProt P29990); assay: flavivirus cap methylation enzyme inhibition – biochemical, confirmation dose response, primary screen (AID 588689)
[8] = intracellular Trypanosoma cruzi inhibitors in host cells – cell-based, plate reader, cherry-pick samples, set 3, dose response (AID 651818);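 further: compounds incubated with infected cells for about four days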
[9] = target: T3, Sentrin-specific protease 7 (Homo sapiens, UniProt Q9BQF6);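 further: Luminescence-based dose-response confirmation of ultra-high-throughput screening hits, measuring inhibition of SENP7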
T3 sequence (Q9BQF6 whole entry): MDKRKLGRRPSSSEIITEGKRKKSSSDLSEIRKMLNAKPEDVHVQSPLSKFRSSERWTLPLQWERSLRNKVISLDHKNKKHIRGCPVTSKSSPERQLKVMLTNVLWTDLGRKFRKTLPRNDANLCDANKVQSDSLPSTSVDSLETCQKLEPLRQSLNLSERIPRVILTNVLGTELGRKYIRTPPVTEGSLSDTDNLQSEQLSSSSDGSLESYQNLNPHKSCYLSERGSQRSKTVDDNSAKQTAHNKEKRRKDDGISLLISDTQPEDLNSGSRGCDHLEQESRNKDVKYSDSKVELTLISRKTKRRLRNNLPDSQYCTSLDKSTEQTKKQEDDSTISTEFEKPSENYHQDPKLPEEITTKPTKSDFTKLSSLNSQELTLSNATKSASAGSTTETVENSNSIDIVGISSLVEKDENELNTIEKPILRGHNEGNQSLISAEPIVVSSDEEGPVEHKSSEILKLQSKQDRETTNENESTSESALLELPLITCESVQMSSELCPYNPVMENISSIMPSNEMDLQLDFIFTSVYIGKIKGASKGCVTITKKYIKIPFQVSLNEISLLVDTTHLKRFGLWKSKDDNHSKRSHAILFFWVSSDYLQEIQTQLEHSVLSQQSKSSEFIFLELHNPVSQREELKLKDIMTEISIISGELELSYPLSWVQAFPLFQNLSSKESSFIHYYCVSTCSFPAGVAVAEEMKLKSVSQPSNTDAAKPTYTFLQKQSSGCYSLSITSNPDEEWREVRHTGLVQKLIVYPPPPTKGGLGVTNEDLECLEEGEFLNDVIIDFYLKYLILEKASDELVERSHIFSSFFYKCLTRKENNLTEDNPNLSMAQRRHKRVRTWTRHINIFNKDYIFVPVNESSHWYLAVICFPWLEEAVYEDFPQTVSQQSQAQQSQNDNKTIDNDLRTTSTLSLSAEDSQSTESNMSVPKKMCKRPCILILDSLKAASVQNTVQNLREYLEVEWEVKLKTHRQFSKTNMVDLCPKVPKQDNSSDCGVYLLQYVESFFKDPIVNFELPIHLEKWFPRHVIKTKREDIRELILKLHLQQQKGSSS

[10] = target: T4, Caspase-3 (Homo sapiens, UniProt P42574);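 further: Dose-response selectivity test against caspase-3 for candidate inhibitors of sentrin-specific proteases (SENPs)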
T4 sequence (P42574 whole entry): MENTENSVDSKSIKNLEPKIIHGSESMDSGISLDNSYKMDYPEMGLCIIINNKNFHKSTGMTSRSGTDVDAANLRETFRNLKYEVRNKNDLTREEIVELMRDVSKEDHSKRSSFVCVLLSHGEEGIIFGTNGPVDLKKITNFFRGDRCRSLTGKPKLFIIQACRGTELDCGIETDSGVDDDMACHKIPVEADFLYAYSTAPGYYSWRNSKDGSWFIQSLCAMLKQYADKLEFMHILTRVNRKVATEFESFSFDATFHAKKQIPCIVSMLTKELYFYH

[11] = target: T5, Sentrin-specific protease 8 (Homo sapiens, UniProt Q96LD8);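 further: luminescence read-out of SENP8 inhibition, dose-response confirmation following an ultra-high-throughput screen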
T5 sequence (Q96LD8 whole entry): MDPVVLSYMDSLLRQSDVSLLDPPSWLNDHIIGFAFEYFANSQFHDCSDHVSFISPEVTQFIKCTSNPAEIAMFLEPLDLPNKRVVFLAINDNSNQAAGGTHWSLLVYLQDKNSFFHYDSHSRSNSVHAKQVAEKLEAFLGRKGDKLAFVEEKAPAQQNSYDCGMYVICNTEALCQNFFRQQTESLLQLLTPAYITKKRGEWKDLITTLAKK

[12] = target: T6, Sentrin-specific protease 6 (Homo sapiens, UniProt Q9GZR1);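 further: Luminescence-based dose-response confirmatory assay of SENP6 inhibition, following up an ultra-high-throughput screen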
T6 sequence (Q9GZR1 whole entry): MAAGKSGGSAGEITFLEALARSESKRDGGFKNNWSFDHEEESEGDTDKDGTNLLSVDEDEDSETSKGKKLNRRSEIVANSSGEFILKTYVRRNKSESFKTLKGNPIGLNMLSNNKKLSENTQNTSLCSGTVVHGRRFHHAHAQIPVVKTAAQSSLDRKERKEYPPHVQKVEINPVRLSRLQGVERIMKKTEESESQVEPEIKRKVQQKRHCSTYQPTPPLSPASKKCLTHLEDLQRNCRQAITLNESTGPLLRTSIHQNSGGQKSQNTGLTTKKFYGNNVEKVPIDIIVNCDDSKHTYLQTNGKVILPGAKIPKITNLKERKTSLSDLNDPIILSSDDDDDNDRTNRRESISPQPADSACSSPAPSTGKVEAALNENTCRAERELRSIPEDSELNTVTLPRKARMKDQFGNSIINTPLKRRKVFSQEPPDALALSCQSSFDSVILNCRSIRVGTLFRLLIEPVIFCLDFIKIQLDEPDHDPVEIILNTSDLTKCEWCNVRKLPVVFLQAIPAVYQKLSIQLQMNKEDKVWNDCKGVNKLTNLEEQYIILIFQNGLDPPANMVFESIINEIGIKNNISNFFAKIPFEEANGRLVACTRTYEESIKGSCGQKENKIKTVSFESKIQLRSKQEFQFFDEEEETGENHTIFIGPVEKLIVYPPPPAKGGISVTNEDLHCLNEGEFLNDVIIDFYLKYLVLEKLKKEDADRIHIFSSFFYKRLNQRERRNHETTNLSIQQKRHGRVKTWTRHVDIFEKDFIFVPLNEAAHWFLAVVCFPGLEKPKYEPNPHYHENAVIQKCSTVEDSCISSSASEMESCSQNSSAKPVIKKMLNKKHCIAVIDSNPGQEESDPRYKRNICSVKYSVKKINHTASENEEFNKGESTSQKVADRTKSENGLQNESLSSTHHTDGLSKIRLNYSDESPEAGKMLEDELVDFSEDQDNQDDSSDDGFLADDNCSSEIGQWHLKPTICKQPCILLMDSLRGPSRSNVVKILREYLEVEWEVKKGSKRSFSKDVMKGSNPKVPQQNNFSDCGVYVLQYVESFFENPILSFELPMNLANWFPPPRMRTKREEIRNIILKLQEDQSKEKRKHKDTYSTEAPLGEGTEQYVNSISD

[13] = target: T7, Protein skinhead-1 (Caenorhabditis elegans, UniProt P34707)
T7 sequence (P34707 whole entry): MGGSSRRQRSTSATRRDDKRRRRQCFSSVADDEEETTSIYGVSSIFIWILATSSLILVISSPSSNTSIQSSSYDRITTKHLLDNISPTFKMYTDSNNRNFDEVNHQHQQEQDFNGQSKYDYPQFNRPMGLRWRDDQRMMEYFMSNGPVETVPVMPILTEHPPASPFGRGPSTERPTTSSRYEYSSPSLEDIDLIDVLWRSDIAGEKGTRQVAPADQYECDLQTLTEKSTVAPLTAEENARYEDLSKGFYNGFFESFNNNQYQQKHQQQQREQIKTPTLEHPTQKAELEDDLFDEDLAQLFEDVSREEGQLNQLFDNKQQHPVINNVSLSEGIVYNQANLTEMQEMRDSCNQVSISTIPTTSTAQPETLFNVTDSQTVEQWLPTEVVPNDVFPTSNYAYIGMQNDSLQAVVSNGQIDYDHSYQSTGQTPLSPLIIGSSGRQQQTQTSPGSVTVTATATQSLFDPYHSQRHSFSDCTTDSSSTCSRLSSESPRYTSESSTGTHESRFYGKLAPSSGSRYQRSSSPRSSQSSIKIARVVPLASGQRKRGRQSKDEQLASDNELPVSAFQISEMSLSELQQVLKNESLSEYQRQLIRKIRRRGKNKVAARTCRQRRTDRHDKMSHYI

Genome polyprotein, sequence (P29990 2492-3391 limits assumed): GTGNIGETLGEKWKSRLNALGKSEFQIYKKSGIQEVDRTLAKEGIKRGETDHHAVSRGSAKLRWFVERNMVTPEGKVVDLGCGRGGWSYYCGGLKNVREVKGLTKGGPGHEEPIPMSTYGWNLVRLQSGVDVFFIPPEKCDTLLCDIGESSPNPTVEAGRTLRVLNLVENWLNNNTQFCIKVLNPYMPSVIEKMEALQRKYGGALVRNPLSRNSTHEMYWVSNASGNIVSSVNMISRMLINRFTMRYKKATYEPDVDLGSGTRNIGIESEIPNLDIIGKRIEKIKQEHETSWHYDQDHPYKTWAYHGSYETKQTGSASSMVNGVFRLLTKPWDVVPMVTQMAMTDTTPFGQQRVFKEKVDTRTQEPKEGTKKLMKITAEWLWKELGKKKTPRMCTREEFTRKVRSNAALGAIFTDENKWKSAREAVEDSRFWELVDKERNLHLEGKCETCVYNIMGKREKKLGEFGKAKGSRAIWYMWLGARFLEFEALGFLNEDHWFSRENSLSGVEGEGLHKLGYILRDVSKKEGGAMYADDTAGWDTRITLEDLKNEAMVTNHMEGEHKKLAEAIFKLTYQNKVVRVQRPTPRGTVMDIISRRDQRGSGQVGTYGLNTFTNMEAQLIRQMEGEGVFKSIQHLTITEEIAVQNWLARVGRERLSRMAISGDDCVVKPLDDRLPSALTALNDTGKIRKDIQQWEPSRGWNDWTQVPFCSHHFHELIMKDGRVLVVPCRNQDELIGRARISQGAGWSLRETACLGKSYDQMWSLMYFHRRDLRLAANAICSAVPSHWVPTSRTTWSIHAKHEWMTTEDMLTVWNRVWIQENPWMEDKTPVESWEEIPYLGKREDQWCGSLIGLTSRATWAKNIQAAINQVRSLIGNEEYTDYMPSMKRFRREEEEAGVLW

Row | Compound | IC50 [1] | EC50 [2] | AC50 [8] | other results
1 | Cc1ccc(C(=O)Nc2ccccc2C(=O)NC2CCCCC2)cc1S(=O)(=O)N1CCOCC1 | > 47.1 µM (inactive) | > 53 µM (inactive) | – | –
2 | Cc1cc(O)c(C2=Nc3ccccc3SC(c3ccc(Cl)cc3)C2)c(=O)o1 (centres undefined) | > 47.1 µM (inactive) | > 53 µM (inactive) | – | EC50 [3]: 107 µM (inconclusive); EC50 [4]: 38.4 µM (active); EC50 [5]: 21 µM (active)
3 | Cc1cccc(C(=O)N2c3ccccc3C(=O)OC2c2ccc3c(c2)OCO3)c1 (centres undefined) | < 0.368 µM (active) | > 53 µM (inactive) | – | –
4 | N#CC(=C1C=C(Br)C(=NO)C=C1Cl)c1ccc(Cl)cc1 | – | – | – | CC50 [6]: > 40 µM (active); IC50 [7]: 62.4 µM (active)
5 | COC(=O)C1=C(C)N=C(C)/C(=C(/O)OC)C1/C=C/c1ccccc1 (centres undefined) | > 47.1 µM (inactive) | > 53 µM (inactive) | – | –
6 | C[C@@H]1CCCCO[C@@H](CN(C)Cc2ccc(C(F)(F)F)cc2)[C@@H](C)CN([C@H](C)CO)C(=O)c2cc(NS(=O)(=O)c3ccc(F)cc3)ccc2O1 | – | – | 5.13 µM (active) | –
7 | C[C@@H]1CN([C@H](C)CO)C(=O)Cc2cc(NC(=O)Nc3ccc(C(F)(F)F)cc3)ccc2O[C@@H]1CN(C)Cc1ccc(Cl)c(Cl)c1 | – | – | 6.82 µM (active) | –
8 | C[C@@H]1CN([C@H](C)CO)C(=O)c2cccc(NC(=O)Nc3ccc(C(F)(F)F)cc3)c2O[C@H]1CN(C)Cc1ccc2c(c1)OCO2 | – | – | 1.82 µM (active) | –
9 | C[C@@H]1CN([C@H](C)CO)C(=O)c2cccc(NC(=O)c3nc4ccccc4s3)c2O[C@@H]1CN(C)Cc1ccc(C(F)(F)F)cc1 | – | – | 5.42 µM (active) | –
10 | C[C@@H]1CN([C@@H](C)CO)C(=O)c2cccc(NC(=O)Nc3ccccc3)c2O[C@H]1CN(C)Cc1ccc(Oc2ccccc2)cc1 | – | – | 2.97 µM (active) | –
11 | C[C@H](CO)N1C[C@H](C)[C@H](CN(C)Cc2ccc(C(=O)Nc3ccccc3N)cc2)Oc2ccc(NC(=O)Nc3ccc4c(c3)OCO4)cc2C1=O | – | – | 3.55 µM (active) | –
12 | O=[N+]([O-])c1ccc(CSc2nc3ccccc3o2)cc1 | – | – | – | IC50 [9]: 7.69 µM (active); IC50 [10]: 25.6 µM (active); IC50 [11]: 16.2 µM (active); IC50 [12]: 23.3 µM (active); IC50 [13]: > 100 µM (inactive)
